Measured values published in patent publication EP1247803A2, “Indolinone compounds suitable for modulation of protein kinases” (Sugen, Inc., priority 1996, dated 1998).

Assays:
MET = MET biochemical kinase assay; set-up: species or system human; concentration or dose not given beside the values
Procedure, shortened: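 In this format, tyrosine phosphorylation of plate-captured human MET is followed in vitro after compound addition in ATP/divalent-cation buffer, detected by anti-phosphotyrosine-HRP with TMB substrate.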

PDGF-R = PDGF-R (Homo sapiens, UniProt P09619); experiment: PDGF-R ELISA; type: cell-based
Chain of PDGF-R (P09619 33-1106, species assumed): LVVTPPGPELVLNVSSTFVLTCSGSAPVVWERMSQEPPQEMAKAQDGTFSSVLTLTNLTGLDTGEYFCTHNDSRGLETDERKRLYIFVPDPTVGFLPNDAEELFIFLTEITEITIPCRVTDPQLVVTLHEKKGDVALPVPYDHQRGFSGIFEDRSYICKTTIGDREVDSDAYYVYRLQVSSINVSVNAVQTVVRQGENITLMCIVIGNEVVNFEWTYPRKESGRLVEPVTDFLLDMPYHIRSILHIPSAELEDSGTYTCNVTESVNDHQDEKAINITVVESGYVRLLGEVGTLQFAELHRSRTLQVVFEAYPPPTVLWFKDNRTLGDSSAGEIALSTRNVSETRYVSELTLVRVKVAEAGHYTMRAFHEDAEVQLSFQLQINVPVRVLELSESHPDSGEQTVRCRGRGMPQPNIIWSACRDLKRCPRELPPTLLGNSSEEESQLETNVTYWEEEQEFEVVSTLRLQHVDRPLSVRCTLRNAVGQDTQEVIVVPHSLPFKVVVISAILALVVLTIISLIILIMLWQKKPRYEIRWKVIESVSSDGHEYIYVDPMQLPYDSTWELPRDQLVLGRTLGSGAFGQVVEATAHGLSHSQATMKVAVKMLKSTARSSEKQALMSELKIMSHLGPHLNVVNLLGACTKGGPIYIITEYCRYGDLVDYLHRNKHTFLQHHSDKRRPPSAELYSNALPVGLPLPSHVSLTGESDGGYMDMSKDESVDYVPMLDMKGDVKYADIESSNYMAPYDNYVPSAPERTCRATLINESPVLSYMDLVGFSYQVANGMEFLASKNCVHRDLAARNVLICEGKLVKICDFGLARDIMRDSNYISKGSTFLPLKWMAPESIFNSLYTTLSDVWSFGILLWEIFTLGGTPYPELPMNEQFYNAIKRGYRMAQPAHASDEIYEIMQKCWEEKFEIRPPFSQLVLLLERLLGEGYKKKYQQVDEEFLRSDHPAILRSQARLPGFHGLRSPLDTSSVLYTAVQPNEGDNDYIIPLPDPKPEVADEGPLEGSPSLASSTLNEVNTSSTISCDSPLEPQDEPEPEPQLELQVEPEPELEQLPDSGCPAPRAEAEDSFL
Text: A PDGF-R ELISA is described in International Patent Publication No. WO 96/40116, published December 19, 1996 by Tang et al.

FLK-1 receptor = target: T1, FLK-1 receptor (Mus musculus, UniProt P35918); experiment: FLK-1 ELISA (kinase activity of the FLK-1 receptor in FLK-1/NIH3T3 cells, VEGF stimulated); type: cell-based; set-up: concentration or dose not given beside the values
T1 construct: expressed in transfected cells; host or cells: NIH3T3 C7#3
T1 sequence (P35918 20-1345): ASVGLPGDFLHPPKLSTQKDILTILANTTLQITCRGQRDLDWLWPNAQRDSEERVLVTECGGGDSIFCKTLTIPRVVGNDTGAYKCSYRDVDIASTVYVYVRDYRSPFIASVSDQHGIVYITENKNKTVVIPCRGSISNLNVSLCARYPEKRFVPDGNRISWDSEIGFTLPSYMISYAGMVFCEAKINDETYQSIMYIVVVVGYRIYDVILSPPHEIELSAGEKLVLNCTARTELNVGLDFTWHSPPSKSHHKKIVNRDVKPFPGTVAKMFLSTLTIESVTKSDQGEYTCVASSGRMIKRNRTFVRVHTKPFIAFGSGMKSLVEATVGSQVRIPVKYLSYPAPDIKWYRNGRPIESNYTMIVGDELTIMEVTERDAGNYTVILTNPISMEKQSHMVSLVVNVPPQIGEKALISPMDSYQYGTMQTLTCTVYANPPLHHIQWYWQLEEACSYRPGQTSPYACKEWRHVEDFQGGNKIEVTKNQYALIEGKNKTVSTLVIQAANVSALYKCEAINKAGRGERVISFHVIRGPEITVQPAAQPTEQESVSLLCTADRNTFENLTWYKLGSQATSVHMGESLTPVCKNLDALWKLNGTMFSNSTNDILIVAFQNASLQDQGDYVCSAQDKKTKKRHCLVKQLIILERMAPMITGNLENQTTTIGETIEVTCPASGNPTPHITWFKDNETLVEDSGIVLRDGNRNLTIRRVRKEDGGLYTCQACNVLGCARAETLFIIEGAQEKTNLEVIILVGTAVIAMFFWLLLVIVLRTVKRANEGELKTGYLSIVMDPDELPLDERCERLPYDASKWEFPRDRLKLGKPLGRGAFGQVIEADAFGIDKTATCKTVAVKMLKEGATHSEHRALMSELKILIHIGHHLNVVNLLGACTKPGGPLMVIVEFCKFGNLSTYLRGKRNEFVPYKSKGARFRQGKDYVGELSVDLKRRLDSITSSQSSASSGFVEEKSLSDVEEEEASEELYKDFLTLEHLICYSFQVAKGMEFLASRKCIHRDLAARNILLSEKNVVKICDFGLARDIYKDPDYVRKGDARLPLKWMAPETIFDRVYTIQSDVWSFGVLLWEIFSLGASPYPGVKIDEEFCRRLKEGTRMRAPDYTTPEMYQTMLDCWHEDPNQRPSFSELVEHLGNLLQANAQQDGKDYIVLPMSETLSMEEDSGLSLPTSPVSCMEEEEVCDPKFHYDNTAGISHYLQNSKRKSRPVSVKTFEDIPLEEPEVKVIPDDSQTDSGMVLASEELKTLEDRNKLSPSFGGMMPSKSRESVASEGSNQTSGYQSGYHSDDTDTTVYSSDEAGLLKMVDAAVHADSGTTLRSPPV
Procedure, shortened: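 NIH3T3 C7#3 cells expressing FLK-1 were seeded at 25.000 cells/well, serum-starved overnight in 0.1% FBS, then treated with compound for two hours at 37°C (final DMSO 0.5%) before VEGF stimulation. Receptor was captured on anti-rabbit IgG-coated ELISA plates bearing affinity-purified anti-FLK-1 antiserum.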

Row | Compound | Met Kinase % Inhibition (MET) [%] | PDGF Kinase %Inhibition (PDGF-R) [%] | Fik Kinase %Inhibition (FLK-1 receptor) [%]
1 | Cc1c(Br)ccc2c1C(=Cc1ccccc1Br)C(=O)N2 [10723/C07] | 44.3 | 27.6 | 20.9
2 | CC(C)(C)c1cc(C=C2C(=O)Nc3c(Br)cc(Br)cc32)c(O)c(C(C)(C)C)c1 [10723/A11] | 60.0 | 41.5 | 42.9
3 | O=C1Nc2ccc(CCCl)cc2C1=Cc1ccccc1Br [10723/G07] | 43.0 | -5.6 | 14.2
4 | O=C1Nc2ccc(S(=O)(=O)N3CCOCC3)cc2C1=Cc1ccc(O)c(O)c1O [10723/F02] | 99.0 | 1.3 | 10.3
5 | CNS(=O)(=O)c1ccc2c(c1)C(=Cc1ccccc1Br)C(=O)N2 [10723/D07] | 21.9 | 16.6 | 15.8
6 | Cc1c(Br)ccc2c1C(=Cc1cc(C(C)(C)C)cc(C(C)(C)C)c1O)C(=O)N2 [10723/C11] | 47.0 | 8.9 | 9.5
7 | O=C1Nc2ccc(I)cc2C1=Cc1cc(O)c(O)c(Br)c1 [10723/B04] | 90.6 | 40.1 | 18.7
8 | O=C1Nc2ccc(CCCl)cc2C1=Cc1ccc(C(F)(F)F)cc1 [10722/G11] | 35.3 | 0.3 | 0.6
9 | CNS(=O)(=O)c1ccc2c(c1)C(=Cc1ccc(OC(C)=O)c(OC(C)=O)c1)C(=O)N2 [10723/D05] | 54.5 | 8.2 | -6.1
10 | CC(C)(C)c1cc(C=C2C(=O)Nc3ccc(CCCl)cc32)cc([N+](=O)[O-])c1O [10722/G02] | 43.0 | 14.6 | 15.1
11 | CNS(=O)(=O)c1ccc2c(c1)C(=Cc1cccc(Br)c1)C(=O)N2 [10723/D10] | 38.1 | 21.4 | 6.5
12 | Cc1cc(C=C2C(=O)Nc3ccc(CCCl)cc32)cc(C)c1O [10722/G07] | 41.2 | -3.7 | 8.0
13 | O=C1Nc2ccc(S(=O)(=O)Nc3ccc(C(F)(F)F)cc3)cc2C1=Cc1ccccc1Br [10723/E07] | 47.7 | 14.5 | 17.4
14 | Cc1cc(C=C2C(=O)Nc3ccc(Br)c(C)c32)ccc1O [10723/C06] | 63.4 | 26.3 | 17.8
15 | Cc1c(Br)ccc2c1C(=Cc1ccc(O)c(O)c1O)C(=O)N2 [10723/C02] | 100.6 | 39.4 | 9.6
16 | O=C1Nc2ccc(CCCl)cc2C1=Cc1csc([N+](=O)[O-])c1 [10722/G09] | 51.0 | 0.9 | 6.1

Row | Compound | Met Kinase % Inhibition (MET) [%] | PDGF Kinase %Inhibition (PDGF-R) [%] | Fik Kinase %Inhibition (FLK-1 receptor) [%]
17 | COc1cccc(C=C2C(=O)Nc3ccc(S(=O)(=O)Nc4ccc(C(F)(F)F)cc4)cc32)c1O [10723/E03] | 76.8 | 47.1 | 8.7
18 | O=C1Nc2c(Br)cc(Br)cc2C1=Cc1ccc(O)cc1O [10723/A08] | 77.3 | 29.7 | -12.9
19 | CC(=O)Oc1ccc(C=C2C(=O)Nc3ccc(CCCl)cc32)cc1OC(C)=O [10723/G05] | 79.9 | 2.0 | -9.4
20 | O=C1Nc2ccc(CCCl)cc2C1=Cc1ccc(O)c(O)c1O [10723/G02] | 99.2 | 13.8 | -1.6
21 | O=C1Nc2ccc(CCCl)cc2C1=Cc1ccc([N+](=O)[O-])s1 [10722/G04] | 63.2 | 11.7 | 7.2
22 | O=C1Nc2ccc(I)cc2C1=Cc1ccc(O)cc1O [10723/B08] | 82.8 | 56.1 | 1.0
23 | COc1ccc(C=C2C(=O)Nc3ccc(CCCl)cc32)c(O)c1 [10723/G09] | 80.7 | -2.9 | -1.8
24 | Cc1cc(C=C2C(=O)Nc3ccc(S(=O)(=O)Nc4ccc(C(F)(F)F)cc4)cc32)ccc1O [10723/E06] | 74.4 | 18.6 | 19.3
25 | CNS(=O)(=O)c1ccc2c(c1)C(=Cc1cccc(OC)c1O)C(=O)N2 [10723/D03] | 69.4 | 8.2 | -14.7
26 | Cc1cc(C=C2C(=O)Nc3c(Br)cc(Br)cc32)ccc1O [10723/A06] | 79.1 | 43.6 | 8.6
27 | O=C1Nc2ccc(I)cc2C1=Cc1cccc(Br)c1 [10723/B10] | 88.5 | 17.2 | 5.8
28 | CNS(=O)(=O)c1ccc2c(c1)C(=Cc1ccc(O)cc1O)C(=O)N2 [10723/D08] | 53.5 | 31.1 | -4.5
29 | CC(=O)Oc1ccc(C=C2C(=O)Nc3ccc(I)cc32)cc1OC(C)=O [10723/B05] | 85.1 | 15.2 | -15.4
30 | Cc1c(Br)ccc2c1C(=Cc1cc(O)c(O)c(Br)c1)C(=O)N2 [10723/C04] | 91.9 | 36.7 | 8.8
31 | O=C1Nc2ccc(S(=O)(=O)Nc3ccc(C(F)(F)F)cc3)cc2C1=Cc1cc(O)c(O)c(Br)c1 [10723/E04] | 94.5 | 36.0 | 30.7
